Where two headings read alike, the source gives them in different places.
What was measured:
[1] = format: in vitro ADME; conditions: 37° C., 20 μg/mL
Description: (§1) Enzymatic stability studies involving plasma and intestinal homogenate were performed with 90% biological fluids.
(§2) One blank (drug free) incubation was performed for each biological fluid. All biological fluid tubes (open) were pre-incubated without PMPA prodrugs in a shaker bath at 37° C. and 100 oscillation/min for 5 minutes. PMPA prodrugs was added to the test incubations (final concentration: 20 μg/mL, mixed and maintained at 37° C. and 100 oscillations/min. Samples (50 μL) were withdrawn at 0, 30, and 60 minutes and the reaction was quenched with 100 μL of 0.1% trifluoroacetic acid (TFA) in acetonitrile. Quenched samples were centrifuged for 5 minutes at 14,000 rpm in an Eppendorf Centrifuge 5402, and the supernatant was used for HPLC analysis.
(§3) For each incubation, the observed rate constant for degradation was calculated by plotting the log of the peak area of PMPA prodrugs versus time of incubation (min). The slope was the observed rate constant (kobs). The half life was calculated according to the following equation: [formula]
(§4) If the observed rate constant for degradation was less than 0.01 min^−1, then t½ was expressed as stable.

[2] = Enzymatic stability in dog liver homogenate (S9); format: in vitro ADME; conditions: 37° C., 20 μg/mL
Description: Dog liver was obtained fresh from Pharmakon USA (Waverly, Pa.). Liver homogenate was prepared following a standard protocol. Dog liver was rinsed three times with ice-code 50 mM sodium/potassium phosphate buffer and homogenized with a Tekmar Tissumizer homogenizer (VWR 33995-060). The homogenate was centrifuged at 9000 g (11,000 rpm for Eppendorf Centrifuge 5402; Brinkman Instruments, Westbury, N.Y.) at 4° C. for 20 minutes. The supernatant was designated at the S9 fraction. The concentration of protein in the S9 fraction was determined using a Bio-Rad Protein Assay Kit II, with bovine serum albumin as standard. Esterase activity was determined using o-nitrophenyl butyreate as substrate and activity was calculated based on the increase in absorbance at 420 nm after a 1 min incubation. The homogenates were stored as 1.0 mL aliquots at −70° C.
as §2, §3, §4

[3] = format: in vitro ADME; conditions: dog intestinal homogenate, 37° C., 20 μg/mL
Description: Dog intestinal segments (jejunum/ileum) were obtained fresh from Pharmakon USA (Waverly, Pa.) and intestinal homogenate was prepared as described for liver. The intestinal homogenates were stored as 1.0 mL aliquots at −70° C.
as §1, §2, §3, §4

[4] = Oral bioavailability of PMPA and PMPA carbonates in beagle dogs; format: in vivo; conditions: for % of PMPA IV (1 mg/kg) AUC: PMPA: 6.2-10 mg eq of PMPA/kg, PMPA in plasma; for % of PMPA IV (1 mg/kg) AUC: Prodrug: intact prodrug in plasma; for % of PMPA IV (1 mg/kg) AUC: Monoester: monoester in plasma; for % of PMPA IV (1 mg/kg) AUC: other: other species in plasma
Description: PMPA (9-[(R)-2-(phosphonomethoxy)propyl]adenine) and PMPA carbonates were examined to determine the effect of dose on the pharmacokinetics of PMPA in beagle dogs, in particular the bioavailability of PMPA following oral administration to beagle dogs.
The intravenous formulations used as standards were isotonic aqueous solutions containing 50 mg/mL PMPA. Compound was added to 10 mL of WFI (water for injection from Abbott Laboratory) and 1N NaOH was added to adjust the pH to 7.4. The solutions were diluted to 15 mL with WFI and sterile filtered with a 0.2 μm filter. The PMPA dose was 10 mg/kg (0.2 mL/kg).
The intravenous formulation for a 1 mg/kg dose was prepared as described above except only 75 mg of PMPA was added to WFI and the final concentration was 5 mg/mL. The dose was 1 mg/kg (0.2 mL/kg). Oral formulations of carbonates were prepared in 20-40% PEG 400/50 mM citric acid and were adjusted to pH 2.2.
Two groups of five adult male beagle dogs were used. The mean body weight at the time of the first does was 9.6±0.4 Kg (range 9.2-10.2). The dogs were fasted 12-18 hours prior to dosing and until 6 hours post-dose. For pentagastrin pretreatment, dogs were given a single intramuscular injection of pentagastrin (Peptavlon 0.25 mg/mL, Ayerst Laboratories, Inc., Philadelphia, Pa.) at a dose of 6 μg/kg, 20 minutes prior to dosing. Water was provided ad lib.
Each formulation was administered as a single dose to five male beagle dogs. Individual vials of each formulation were provided for each animal. The intravenous formulation was administrated via a cephalic vein. The oral suspension was administered by gavage, followed by two 10 mL water washes. At least one week washout period was allowed between administrations.
Blood samples (4.0 mL) were collected by direct jugular access from each animal into heparinized tubes. Animals remained conscious throughout the sample collection period. Blood was processed immediately for plasma by centrifugation at 2000 rpm for 10 minutes. Plasma samples were frozen and maintained at ≦−20° C. until analyzed.
Urine samples were collected over 0-24 and 24-48 hours time periods. Urine samples from 0-24 and 24-48 hours were divided into aliquots and mixed based on the volume collected and analyzed to determine amount of PMPA recovered from urine during 0-48 hours.
PMPA in Plasma and Urine was determined as follows. PMEA (9-(2-phosphono-methoxyethyl)adenine; adefovir) was used as the internal standard for both analyses. The total concentration of PMPA in dog plasma or urine samples was determined by derivatizing PMPA and PMEA with chloroacetaldehyde to yield a highly fluorescent N^1,N^6-ethenoadenine derivative as described (Russell, J. et al. (1991) Determination of 9-[(2-Phosophonylmethoxy)-ethyl]Adenine in Rat Urine by High-Performance Liquid Chromatography with Fluorescence Detection. J. Chromatogr. (Netherlands) 572, 321-326).
Sample Extraction for PMPA in plasma and urine was performed as follows. Plasma (200 μL) and internal standard ([…]) were mixed with 400 μL of acetonitrile containing 0.1% TFA to precipitate protein. Samples were then evaporated to dryness under reduced pressure at room temperature (Savant SpeedVac). Urine samples (20 μL) and internal standard (30 μL of 10 μg/mL PMEA providing a final PMEA concentration of 1.5 μg/mL) were used directly for derivatization without drying.
The samples were derivatized for analysis as follows. Dried plasma samples or urine samples were reconstituted or mixed in 200 μL derivatization cocktail (0.34% chloroacetaldehyde in 100 mM sodium acetate, pH 4.5), vortexed, and centrifuged for 10 minutes at 14,000 rpm in an Eppendorf Centrifuge 5402. Supernatant was then transferred to a clean screw capped tube and incubated at 95° C. for 40 minutes. Derivatized samples were quenched on ice and evaporated to dryness under reduced pressure at room temperature. […]

[5] = Partition coefficient (Log PC); format: physicochemical
[6] = Enzymatic stability in human intestinal homogenate (S9); format: in vitro ADME; conditions: human intestinal homogenate (values in parentheses), 37° C., 20 μg/mL
Description: Human intestinal homogenate (S9) was obtained from Keystone Skin Bank (Exton, Pa.) at concentration of 20 mg protein/mL.
as §1, §2, §3, §4

HIV-1 (IIIB) = assay: microbe, parasite or virus in culture; format: cell-based; conditions: MT-2 cells; for IC50: read-out: IC50 (50% inhibitory concentration)
Description: PMPA (9-[(R)-2-(phosphonomethoxy)propyl]adenine) and PMPA carbonates were examined to determine their activity against HIV-1.

MT-2 cells = assay: Cytotoxicity in MT-2 cells; format: cell-based; conditions: MT-2 cells; read-out: CC50 (concentration to kill 50% of the cells)
Description: (§5) PMPA (9-[(R)-2-(phosphonomethoxy)propyl]adenine) and PMPA carbonates were examined to determine their activity against HIV-1. The antiviral activity of the carbonates 5a, 5c-g against HIV-1 (IIIB) was determined in MT-2 cells and the IC50 (50% inhibitory concentration) and CC50 (concentration to kill 50% of the cells) values were measured. […] The increased activity can be attributed to increased cellular uptake of the prodrugs followed by effective intracellular conversion to PMPA, which undergoes subsequent phosphorylation to the antivirally active diphosphate metabolite. […] The partition coefficient values support this hypothesis, with all prodrugs being more lipophilic (logP=0.6-3.2) compared to PMPA (logP=−2.5). [drawing 32]

[7] = Cytotoxicity in MT-2 cells; format: cell-based; conditions: human
Description: as §5

SMILES	Biological t½ (min) (Dog) Plasma [1]	Biological t½ (min) (Dog) Liver [2]	Biological t½ (min) (Dog) Intestine [3]	% of PMPA IV (1 mg/kg) AUC: PMPA [4] [%]	% of PMPA IV (1 mg/kg) AUC: Prodrug [4] [%]	% of PMPA IV (1 mg/kg) AUC: Monoester [4] [%]	% of PMPA IV (1 mg/kg) AUC: other [4] [%]	Log PC pH 7.4 [5]	Biological t½ (min) (Human) Intestine [6]	IC50 (HIV-1 (IIIB); HIV-1 (IIIB)) [nM]	increased potency compared to PMPA (HIV-1 (IIIB); HIV-1 (IIIB), relative to PMPA) [fold]	CC50 (MT-2 cells) [µM]	Urinary Recovery (% as PMPA) ([4]; urine 0-48 hours) [%]	IC50 (HIV-1 (IIIB); Human immunodeficiency virus 1, MT2, HIV-1 (IIIB)) [nM]	SI, Selectivity Index (CC50/IC50) (HIV-1 (IIIB); HIV-1)	CC50 [7] [µM]
CCOC(=O)OC(C)OP(=O)(CO[C@H](C)Cn1cnc2c(N)ncnc21)OC(C)OC(=O)OCC (stereo partly drawn) [Bis-EtCOE PMPA]	42.6 min	<5	62.4 min													
CCOC(=O)OCOP(=O)(CO[C@H](C)Cn1cnc2c(N)ncnc21)OCOC(=O)OCC [Bis-EtCOM PMPA, Bis-ethyl Oxymethyl Carbonate of PMPA]	16.6 min	<5	23.3 min	29.3 ± 3.4	0	−2	0	0.6	(<5) min							
CC(C)COC(=O)OCOP(=O)(CO[C@H](C)Cn1cnc2c(N)ncnc21)OCOC(=O)OCC(C)C [Bis-IBu COM PMPA]	<5 min	<5	15 min	24.5 ± 8.82				2.0	(<5) min							
CCCN(CCC)C(=O)OCOP(=O)(CO[C@H](C)Cn1cnc2c(N)ncnc21)OCOC(=O)N(CCC)CCC [Bis-di-n-proNCOM PMPA]	Stable (If the observed rate constant for degradation was less than 0.01 min^−1, then t½ was expressed as stable)	76	Stable (If the observed rate constant for degradation was less than 0.01 min^−1, then t½ was expressed as stable)													
CC(C)OC(=O)OCOP(=O)(CO[C@H](C)Cn1cnc2c(N)ncnc21)OCOC(=O)OC(C)C [Bis-isopropylCOM PMPA, Bis Isopropyl Oxymethyl Carbonate of PMPA]	20.5 min	<5	52.6 min	35.8 ± 14.7	0	3.1	0	1.25	(<5) min							
CCCCOC(=O)OCOP(=O)(CO[C@H](C)Cn1cnc2c(N)ncnc21)OCOC(=O)OCCCC [Bis-nBuCOM PMPA, Bis-n-butyl Oxymethyl Carbonate of PMPA]	<5 min	<5	<5 min	17.3 ± 2.57				2.7	(<5) min							
C[C@H](Cn1cnc2c(N)ncnc21)OCP(=O)(OCOC(=O)OC(C)(C)C)OCOC(=O)OC(C)(C)C [Bis-t-Bu COM PMPA]	21.2 min	14.9	26.6 min	36.2 ± 6.76				1.93	(<5) min	200	2.5	10	34.9			
C[C@H](Cn1cnc2c(N)ncnc21)OCP(=O)(OCOC(=O)NC(C)(C)C)OCOC(=O)NC(C)(C)C [Bis-tBuNCOM PMPA]	99.5 min	166.5	107.5 min	8.86 ± 2.38	9.97											
C[C@H](Cn1cnc2c(N)ncnc21)OCP(=O)(O)O [PMPA, 9-[(R)-2-(phosphonomethoxy)propyl]adenine, reference compound]														500	500	250

— patent publication USRE38333E1, “Antiviral phosphonomethoxy nucleotide analogs having increased oral bioavailability” (Gilead Sciences, Inc., priority 1996, dated 2003)
